Reference: patent publication US10800746B2, “Oxoalkyl-substituted phenyltriazole derivatives and uses thereof” (BAYER PHARMA AKTIENGESELLSCHAFT, priority 2016, dated 2020)

How the values were obtained:
human V2 receptor = human V2 receptor (Homo sapiens (Human), UniProt P30518); experiment: Cellular in vitro assay for vasopressin receptor activity, V2 receptor cell line (CRE-luciferase); type: cell-based; settings: CHO cell line transfected with human V2 receptor; [Arg8]-vasopressin at EC50; read-out: IC50 hV2
Protocol: (§1) The identification of agonists and antagonists of the V1a and V2 vasopressin receptors from humans, rats and dogs as well as the quantification of the activity of the compounds of the invention is carried out using recombinant cell lines. These cell lines originally derive from a hamster's ovary epithelial cell (Chinese Hamster Ovary, CHO K1, ATCC: American Type Culture Collection, Manassas, Va. 20108, USA). The test cell lines constitutively express the human, rat or dog V1a or V2 receptors. In case of the Gαq-coupled V1a receptors, cells are also stably transfected with a modified form of the calcium-sensitive photoproteins aequorin (human and rat V1a) or obelin (dog V1a), which, after reconstitution with the cofactor coelenterazine, emit light when there are increases in free calcium concentrations [Rizzuto R, Simpson A W, Brini M, Pozzan T, Nature 358, 325-327 (1992); Illarionov B A, Bondar V S, Illarionova V A, Vysotski E S, Gene 153 (2), 273-274 (1995)]. The resulting vasopressin receptor cells react to stimulation of the recombinantly expressed V1a receptors by intracellular release of calcium ions, which can be quantified by the resulting photoprotein luminescence. The Gs-coupled V2 receptors are stably transfected into cell lines expressing the gene for firefly luciferase under control of a CRE-responsible promoter. Activation of V2 receptors induces the activation of the CRE-responsive promoter via cAMP increase, thereby inducing the expression of firefly luciferase. The light emitted by photoproteins of V1a cell lines as well as the light emitted by firefly luciferase of V2 cell lines corresponds to the activation or inhibition of the respective vasopressin receptor. The bioluminescence of the cell lines is detected using a suitable luminometer [Milligan G, Marshall F, Rees S, Trends in Pharmacological Sciences 17, 235-237 (1996)].
On the day before the assay, the cells are plated out in culture medium (DMEM/F12, 2% FCS, 2 mM glutamine, 10 mM HEPES) in 384-well microtiter plates and kept in a cell incubator (96% humidity, 5% v/v CO2, 37° C.). […] Upon addition of the cell lysis reagent Triton™ and the substrate luciferin, luminescence of firefly luciferase is measured in a luminometer.

Wistar rats = experiment: Diuresis investigations in conscious rats kept in metabolism cages; type: in vivo; settings: rat
Protocol: Wistar rats (220-450 g body weight) are kept with free access to feed (Altromin) and drinking water. During the experiment, the animals are kept with free access to drinking water for 4 to 8 or up to 24 hours individually in metabolism cages suitable for rats of this weight class (Tecniplast Deutschland GmbH, D-82383 Hohenpeißenberg). At the beginning of the experiment, the animals are administered the test substance in a volume of 1 to 3 ml/kg body weight of a suitable solvent by means of gavage into the stomach. Control animals only receive solvent. Controls and substance tests are carried out in parallel on the same day. Control groups and substance-dose groups each consist of 4 to 8 animals. During the experiment, the urine excreted by the animals is collected continuously in a receiver at the base of the cage. The volume of urine per time unit is determined separately for each animal, and the concentration of urinary electrolytes is measured by standard methods of flame photometry. Before the beginning of the experiment, the body weight of the individual animals is determined.

human V1a receptor = human V1a receptor (Homo sapiens (Human), UniProt P37288); experiment: Cellular in vitro assay for vasopressin receptor activity, V1a receptor cell line (aequorin luminescence); type: cell-based; settings: CHO cell line transfected with human V1a receptor; [Arg8]-vasopressin at EC50; read-out: IC50 hV1a
Protocol: as §1
On the day before the assay, the cells are plated out in culture medium (DMEM/F12, 2% FCS, 2 mM glutamine, 10 mM HEPES, 5 μg/ml coelenterazine) in 384-well microtiter plates and kept in a cell incubator (96% humidity, 5% v/v CO2, 37° C.). On the day of the assay, test compounds in various concentrations are placed for 10 minutes in the wells of the microtiter plate before the agonist [Arg^8]-vasopressin at EC50 concentration is added. The resulting light signal is measured immediately in the luminometer.

Sequence of human V1a receptor (P37288 whole entry): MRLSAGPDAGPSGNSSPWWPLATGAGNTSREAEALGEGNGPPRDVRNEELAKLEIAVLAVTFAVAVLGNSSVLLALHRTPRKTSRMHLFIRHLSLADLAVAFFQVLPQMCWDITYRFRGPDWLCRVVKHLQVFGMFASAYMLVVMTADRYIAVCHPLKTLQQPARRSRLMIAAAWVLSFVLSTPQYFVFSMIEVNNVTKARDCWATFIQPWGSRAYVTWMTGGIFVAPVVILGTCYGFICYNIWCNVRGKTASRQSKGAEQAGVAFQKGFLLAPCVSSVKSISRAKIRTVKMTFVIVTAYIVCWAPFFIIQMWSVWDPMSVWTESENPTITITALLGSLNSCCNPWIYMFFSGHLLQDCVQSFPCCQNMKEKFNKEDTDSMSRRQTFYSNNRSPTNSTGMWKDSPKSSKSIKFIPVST
Sequence of human V2 receptor (P30518 whole entry): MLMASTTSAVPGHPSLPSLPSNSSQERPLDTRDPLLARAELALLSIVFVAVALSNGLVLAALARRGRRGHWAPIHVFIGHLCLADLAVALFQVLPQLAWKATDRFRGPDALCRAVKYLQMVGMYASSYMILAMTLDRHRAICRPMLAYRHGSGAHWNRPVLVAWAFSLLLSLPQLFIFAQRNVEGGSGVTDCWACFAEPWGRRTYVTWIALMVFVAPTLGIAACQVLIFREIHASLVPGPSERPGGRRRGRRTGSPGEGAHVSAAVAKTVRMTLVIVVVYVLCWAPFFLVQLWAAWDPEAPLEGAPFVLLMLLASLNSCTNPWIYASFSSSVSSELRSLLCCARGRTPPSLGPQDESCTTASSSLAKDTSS

SMILES	IC50 (human V2 receptor) [nM]	Urinary volume [% vs. control = 100%] (Wistar rats; 0.3 mg/kg p.o.)	Urinary volume [% vs. control = 100%] (Wistar rats; 3.0 mg/kg p.o.)	IC50 (human V1a receptor) [nM]
CC(=O)c1nc(Cn2nc(-c3ccc(Cl)cc3)n(C[C@H](O)C(F)(F)F)c2=O)nn1-c1cccc(Cl)c1 [Example 1, 2-{[5-Acetyl-1-(3-chlorophenyl)-1H-1,2,4-triazol-3-yl]methyl}-5-(4-chlorophenyl)-4-[(2S)-3,3,3-trifluoro-2-hydroxypropyl]-2,4-dihydro-3H-1,2,4-triazol-3-one]	2.3	344	554	34.5
CC(=O)c1nc(Cn2nc(-c3ccc(Cl)cc3)n(C[C@H](O)C(F)(F)F)c2=O)nn1-c1cccc(F)c1 [Example 2, 2-{[5-Acetyl-1-(3-fluorophenyl)-1H-1,2,4-triazol-3-yl]methyl}-5-(4-chlorophenyl)-4-[(2S)-3,3,3-trifluoro-2-hydroxypropyl]-2,4-dihydro-3H-1,2,4-triazol-3-one]	6.2	–	–	7.5
CC(=O)c1nc(Cn2nc(-c3ccc(Cl)cc3)n(C[C@H](O)C(F)(F)F)c2=O)nn1-c1ccccc1Cl [Example 3, 2-{[5-Acetyl-1-(2-chlorophenyl)-1H-1,2,4-triazol-3-yl]methyl}-5-(4-chlorophenyl)-4-[(2S)-3,3,3-trifluoro-2-hydroxypropyl]-2,4-dihydro-3H-1,2,4-triazol-3-one]	4.9	172	679	0.5
CC(=O)c1nc(Cn2nc(-c3ccc(Cl)cc3)n(CC(=O)C(F)(F)F)c2=O)nn1-c1cccc(Cl)c1 [Example 4, 2-{[5-Acetyl-1-(3-chlorophenyl)-1H-1,2,4-triazol-3-yl]methyl}-5-(4-chlorophenyl)-4-(3,3,3-trifluoro-2-oxopropyl)-2,4-dihydro-3H-1,2,4-triazol-3-one]	7.7	–	–	123
CC(O)c1nc(Cn2nc(-c3ccc(Cl)cc3)n(CC(=O)C(F)(F)F)c2=O)nn1-c1cccc(Cl)c1 [Example 5, 5-(4-Chlorophenyl)-2-({1-(3-chlorophenyl)-5-[(1S,R)-1-hydroxyethyl]-1H-1,2,4-triazol-3-yl}methyl)-4-(3,3,3-trifluoro-2-oxopropyl)-2,4-dihydro-3H-1,2,4-triazol-3-one]	2.8	–	–	55
O=c1n(Cc2nnc(-c3ccccc3Cl)[nH]2)nc(-c2ccc(Cl)cc2)n1C[C@H](O)C(F)(F)F [Example No. WO 2011/104322 54]	–	85	188	–
COC(=O)Cn1nc(-c2ccccc2Cl)nc1Cn1nc(-c2ccc(Cl)cc2)n(C[C@H](O)C(F)(F)F)c1=O [Example No. WO 2011/104322 56]	6.7	128	85	1.3
O=C(O)Cn1nc(Cn2nc(-c3ccc(Cl)cc3)n(C[C@H](O)C(F)(F)F)c2=O)nc1-c1ccccc1Cl [Example No. WO 2011/104322 60]	–	96	84	–
NC(=O)Cn1nc(Cn2nc(-c3ccc(Cl)cc3)n(C[C@H](O)C(F)(F)F)c2=O)nc1-c1ccccc1Cl [Example No. WO 2011/104322 68]	–	87	121	–
O=c1n(Cc2cn(-c3ccccc3Cl)nn2)nc(-c2ccc(Cl)cc2)n1C[C@H](O)C(F)(F)F [Example No. WO 2011/104322 101]	–	111	255	–
O=c1n(Cc2cn(-c3ccccc3Cl)cn2)nc(-c2ccc(Cl)cc2)n1C[C@H](O)C(F)(F)F [Example No. WO 2011/104322 110]	–	114	274	–
